pIC50: −log10 of the molar value.
Key:
GR complex = assay: modulation of [35S]TBPS binding in rat cerebral cortex P2 homogenate; parameters: species or system Sprague-Dawley rats; IMAX: unit not given here; conditions: for pIC50: concentration of compounds to inhibit 50% of control [35S]TBPS binding, 2 nM [35S]TBPS, 25°C, 90 minutes, no unit printed; for IMAX: maximum inhibition of [35S]TBPS binding, I* = Inactive
Protocol: We performed several experiments to determine the nature of the modulation of [^35S]TBPS as affected by the compounds of the invention.
These procedures were performed as follows:
Brains from male Sprague-Dawley rats were removed immediately following sacrifice and the cerebral cortices dissected over ice. […] Briefly, the cortices were gently homogenized in 0.32 M sucrose followed by centrifugation at 1000 x g for 10 minutes. The supernatant was collected and centrifuged at 9000 x g for 20 minutes. The resultant P2 pellet was suspended as a 10% (original wet weight/volume) suspension in 50 mM Na/K phosphate buffer (pH 7.4) 200 mM NaCI to form the homogenate.
One hundred microliter […] aliquots of the P2 homogenate (0.5 milligrams (mg) protein) were incubated with 2 nanomolar (nM) [^35S]TBPS (70-110 curies/millimole;, New England Nuclear, Boston, MA) in the presence or absence of the naturally occurring steroids or their synthetic derivatives to be tested. The tested compounds were dissolved in dimethylsulfoxide (Baker Chem. Co., Phillipsbury, NJ) and added to the incubation mixture in 5 µL aliquots. The incubation mixture was brought to a final volume of 1 mL with buffer. Nonspecific binding was defined as binding in the presence of […]. The effect and specificity of GABA (Sigma Chem. Co., St. Louis, MO) was evaluated by performing all assays in the presence of GABA plus (+)bicuculline (Sigma Chem. Co.). Incubations maintained at 25°C for 90 minutes (steady state conditions) were terminated by rapid filtration through glass fiber filters (No. 32, Schleicher and Schuell, Keene, NH). Filter-bound radioactivity was quantitated by liquid scintillation spectrophotometry.
Various compounds were screened to determine their potential as modulators of [^35S]TBPS binding in vitro. These assays were performed in accordance with the above discussed procedures. […] It is an indication of a compound's in vitro potency. Maximum inhibition is an indication of a compound's in vitro efficacy.

rats = assay: Geller-Seifter conflict test; format: in vivo, Sprague-Dawley rats; conditions: sc, 50% hpbcd
Text: This animal model of human anxiety utilizes a conditioned state of conflict in rats to ascertain the anxiolytic properties of drugs. Rats are conditioned to bar press for positive reinforcement under two schedules of behavior (Geller and Seifter, Psychopharmacologia 1:482-492 (1960)). The first includes bar pressing under a […] schedule without punishment. The second component is a fixed ratio schedule with each bar press resulting in a positive reinforcement and a punishment. The punished component produces a state of conflict within the animal. […] An anxiolytic response would increase the punished responding without affecting the unpunished responding.
Male albino Sprague-Dawley rats (Charles River Labs, Wilmington, MA) weighing 250-300 g were used for conflict experiments and were kept on a restricted diet of Purina Lab Chow food pellets with water available at all times to maintain body weight at 85% of their free-feeding young adult levels. Rats were housed individually under a 12-hour light-dark cycle with lights on from 0700-1900.
The anti-anxiety (punishment-lessening) and response depressant effects of […] and […] were measured in rats by the conflict test of Geller and Seifter (1960). In this 63-min test, hungry rats perform a lever-press response to obtain a sweetened milk reward. The reinforcement schedule consists of punishment and nonpunishment components, alternating approximately every 15 min. Rats were trained in test chambers (Coulbourn instruments) with a lever mounted in one wall, a small dipper that delivered the 0.1-mL milk reward (1 part Eagle condensed : milk 2 parts water), and a metal grid floor through which the foot-shock punishment was administered. A DEC PDP 11/73 minicomputer running SKED (State Systems) was used for programming and recording.
Rates initially learned to respond on a continuous reinforcement schedule and progressed rapidly to 30-sec, 1-min, and 2-min variable interval (VI) schedules. On the continuous reinforcement schedule, rats received milk reward following every lever press; on the VI schedules, milk rewards were available at infrequent and variable intervals, eventually at an average of once every 2 min. Four 3-min "conflict" periods were then introduced on the unpunished VI baseline; the first started after 3 min of VI performance and the others were alternated between 12-min periods of VI responding. During conflict periods, which were signalled by the presentation of a light and a tone, the continuous reinforcement schedule was again in force and each lever press delivered both a milk reward and a brief ([…]) foot-shock punishment. Shock intensity was 0.2 mA initially, and.was increased daily in increments of 0.02 mA in order to gradually suppress lever pressing to 5 responses or less per conflict period. This training took 4-6 weeks, after which stable low rates of response were observed during conflict periods and stable high rates in the nonpunishment periods. Drug-induced increases in the rate of punished responses were taken as an index of antianxiety activity, while decreases in the rate of unpunished responses were taken as an index of response depression or sedation.

[1] = test system: metrazol induced convulsions; assay: animal or person; format: in vivo, mice; conditions: IP
Protocol: Experiments were also performed to determine the physiological relevance of neuroactive steroid and GABA receptor interactions by assessing the ability of the compounds of and used in the invention to prevent metrazol induced convulsions in mice. […] The time to onset of myoclonus (presence of forelimb clonic activity) induced by metrazol was determined by observing each mouse for a period of 30 minutes. […]
The anticonvulsant tests are similar to that described above. […] The number of animals with tonic and/or clonic convulsions was recorded. In the maximal electroshock test, 50 mA of current at 60 Hz was delivered through corneal electrodes for 200 msec to induce tonic seizure. The ability of compounds to abolish the tonic component was defined as the endpoint. General CNS depression potential was determined by a rotorod test 10 minutes after the injection of compounds where the number of mice staying on a rotating (6 rpm) rod for 1 minute in one of the three trials was determined. […]

mice = assay: elevated plus-maze; format: in vivo, N.I.H. Swiss-Webster mice
Text: The theoretical basis for the elevated plus-maze test is similar to that of the light/dark transition test. As described by Pellow et al., J. Neurosci. Meth 14:149-167 (1985), the elevated plus-maze apparatus is designed to utilize the mice's natural aversion to open spaces. The apparatus consists of two open-arms and two enclosed-arms. The elevated plus-maze test allows for two measures of anxiety, the number of entries into the open-arms and the time spent on the open-arms, both expressed as a percentage of the total number of entries and time spent in/on both the open-arms and enclosed-arms.
Male N.I.H. Swiss-Webster mice (Harlan, Indianapolis, IN) weighing 15-20 g were housed four per cage in polyethylene cages with sawdust bedding. The colony room was environmentally controlled (22°C) with a 12 hr light/dark cycle (0600-1800 hr). Food and water were available ad libitum, except during testing. The experiments were run from 0700-1500 hr and groups were counterbalanced for time of day effects. Mice were only administered drug or vehicle once.
The method used was previously described (Lister, Psychopharmacol. 92:180-185 (1987)). The apparatus included two open arms perpendicular to two enclosed arms elevated 50 cm from the floor. Each arm was 50 cm long and the walls of the enclosed arms were 40 cm tall. The maze was made completely of black plexiglass. Incandescent 200 W light bulbs were above each of the open arms to produce a strong contrast between the open arms and the enclosed arms.
Ten minutes after an injection, the N.I.H. Swiss-Webster mice were placed in the center of the plus-maze facing an open arm. During the 5 min test period, the number of entries onto the open arms and the enclosed arms, and the time spent in the open arms and enclosed arms were measured. All four paws had to be within an arm for the dependent variable to be measured. Therefore, the time spent in the center of the maze is not counted, so the total time spent in the open arms and the enclosed arms may not equal 5 min. […]

[2] = 50% hpbcd, 10 mg/kg, 10 minutes prior to metrazol (85 mg/kg)

Compound | pIC50 (GR complex) | IMAX (GR complex) | % Protected [1, 2] | % Control (mice; IP, 50% hpbcd, 10 mg/kg) | also measured
CC(=O)[C@H]1CC[C@H]2[C@@H]3CC[C@@H]4C[C@@](O)(C(F)(F)F)CC[C@]4(C)[C@H]3C=C[C@]12C [3α-Hydroxy-3β-trifluoromethyl-5β-pregn-11-en-20-one] | 6.69 | 99 |  |  | Geller/Seifter (% of control) (rats; 4 mg/kg): 508.3 % of control
CC(=O)OCC(=O)[C@H]1CC[C@H]2[C@@H]3CC[C@H]4C[C@H](O)CC[C@]4(C)[C@H]3CC[C@]12C [3α,21-dihydroxy-5α-pregnan-20-one 21-acetate] | 7.12 | 99 | 50% | 133% | 
CC1([C@H]2CC[C@H]3[C@@H]4CC[C@H]5C[C@](C)(O)CC[C@]5(C)[C@H]4CC[C@]23C)NC(C(=O)O)CS1 (stereo partly drawn) [3α-Hydroxy-3β-methyl-5α-pregnane-20-spiro-2'-(1'3'-thiazolidine-4'-carboxylic acid)] |  |  |  |  | Geller/Seifter (% of control) (rats; 16 mg/kg): 900.0 % of control
CC=C1CCC2C3CCC4CC(O)(C(F)(F)F)CCC4C3CCC12C (stereo not drawn) [3α-Hydroxy-3β-trifluoromethyl-5β-19-norpregn-17(20)(Z)-ene] |  |  | 25% |  | Geller/Seifter (% of control) (rats; 16 mg/kg): 1130.3 % of control
CC12CCC(O)(C(F)(F)F)CC1CCC1C2CCC2(C)C(C(=O)COC(=O)C=CC(=O)[O-])CCC12.[Na+] (stereo not drawn) [3α,21-dihydroxy-3β-trifluoromethyl-5β-pregnan-20-one 21 hemifumarate sodium salt] | 6.26 | 102 |  |  | % Protected ([1]; water, 10 mg/kg): 50%; % Control (mice; IP, water, dose column prints 50% hpbcd): 126%
CCC(O)C1CCC2C3CCC4CC(C)(O)CCC4(C)C3CCC12C (stereo not drawn) [3α,20α-Dihydroxy-3β,21-dimethyl-5α-pregnane] | 6.29 | 48 |  |  | % Protected ([1]; dmso, 10 mg/kg): 0%; % Control (mice; IP, dmso, 10 mg/kg): 73%
CC(O)C1CCC2C3CCC4CC(C)(O)CCC4(C)C3CCC12C (stereo not drawn) [3α,20α-dihydroxy-3β-methyl-5α-pregnane] | 6.78 | 52 |  |  | % Protected ([1]; micro soln., 100 mg/kg): 60%; % Control (mice; IV, micro soln., 10 mg/kg): 174.5%
C#C[C@@]1(O)CC[C@@]2(C)[C@H](CC[C@@H]3[C@@H]2CC[C@]2(C)[C@@H](C(=O)COC(C)=O)CC[C@@H]32)C1 [3α,21-Dihydroxy-3β+ethynyl-5β-pregnan-20-one 21-acetate] | 6.60 | 101 | 62.5% | 159% | 
CC(=O)[C@H]1CC[C@H]2[C@@H]3CC[C@H]4C[C@@](O)(C(F)(F)F)CC[C@@H]4[C@H]3CC[C@]12C [3β-Trifluoromethyl-3α-hydroxy-5α-19-norpregnan-20-one] | 6.60 | 40 | 25% | 161% | 
C=C(C)C#C[C@@]1(O)CC[C@@]2(C)[C@H](CC[C@@H]3[C@@H]2CC[C@]2(C)[C@@H](C(C)=O)CC[C@@H]32)C1 [3α-hydroxy-3β-(3'-methyl-but-3'-en-1'-ynyl)-5β-pregnan-20-one] | 7.62 | 91 | 100% | 155% | 
C=C(C)C#CC1(O)CCC2(C)C(CCC3C2CCC2(C)C(C(C)=O)CCC32)C1 (stereo not drawn) [3α-hydroxy-3β-(3'-methyl-but-3'-en-1'-ynyl)-5α-pregnan-20-one] | 7.06 | 95 | 87.5% | 141% | 
C[C@]12CC[C@](O)(CF)C[C@@H]1CC[C@@H]1[C@@H]2CC[C@]2(C)[C@@H](C(=O)CO)CC[C@@H]12 [3α,21-dihydroxy-3β-fluoromethyl-5α-pregnan-20-one] | 6.23 | 101 | 25% | 109% | 
Bis (3α,21-dihydroxy-3β-trifluoromethyl-5β-pregnan-20-one) 21-hemisuccinate | 6.72 | 23 | 25% | 92% | 
